Assay results from US5708013A, “Pyridine derivative and therapeutic agent for ulcer comprising the same” (priority 1987, dated 1998).

biological target: T1, H^+ --K^+ ATPase (Sus scrofa, UniProt P19156); experiment: H+-K+ ATPase activity inhibition; type: biochemical; settings: pig gastric fundus gland H+-K+ ATPase; pH 7.40, 37° C., 30 min incubation; compound dissolved in methanol; read-out: inhibitory effect on H+-K+ ATPase activity, IC50
T1 construct: prepared from a gland portion of the gastric fundus of the gastiric mucosa of a fresh pig; from tissue; host or cells: gland portion of the gastric fundus mucosa, fresh pig
Experimental: H^+ --K^+ ATPase activity inhibition
(1) Preparation of H^+ --K^+ ATPase:
H^+ --K^+ ATPase was prepared from a gland portion of the gastric fundus of the gastiric mucosa of a fresh pig by the modification of a method of Saccomani et al., Biochem. and Biophys.
(2) Determination of H^+ --K^+ ATPase activity:
The compound of the present invention was incubated in various concentrations together with H^+ --K^+ ATPase and 10 μg/ml of protein in 40 mM of Tris-HCl having a pH value of 7.40 at 37° C. for 30 min. 15 mM of KCl was added thereto. 10 min after the addition, an ATPase reaction was initiated by addition of 3 mM of MgCl2 and ATP. 10 min after the initiation of the reaction, the amount of the released inorganic phosphoric acid was measured according to the method of Yoda and Hokin, Biochem. Biophys.
The test compound was dissolved in methanol prior to use.
The inhibitory effect was determined as follows. The measured value of the test compound was subtracted from the measured value of the control group to determine the difference in the measured values therebetween. The inhibitory effect was calculated as the percentage of the difference relative to the measured value of the control group. In the Table, the inhibitory effect was expressed in terms of IC50.

T1 sequence (P19156 2-1034 limits assumed): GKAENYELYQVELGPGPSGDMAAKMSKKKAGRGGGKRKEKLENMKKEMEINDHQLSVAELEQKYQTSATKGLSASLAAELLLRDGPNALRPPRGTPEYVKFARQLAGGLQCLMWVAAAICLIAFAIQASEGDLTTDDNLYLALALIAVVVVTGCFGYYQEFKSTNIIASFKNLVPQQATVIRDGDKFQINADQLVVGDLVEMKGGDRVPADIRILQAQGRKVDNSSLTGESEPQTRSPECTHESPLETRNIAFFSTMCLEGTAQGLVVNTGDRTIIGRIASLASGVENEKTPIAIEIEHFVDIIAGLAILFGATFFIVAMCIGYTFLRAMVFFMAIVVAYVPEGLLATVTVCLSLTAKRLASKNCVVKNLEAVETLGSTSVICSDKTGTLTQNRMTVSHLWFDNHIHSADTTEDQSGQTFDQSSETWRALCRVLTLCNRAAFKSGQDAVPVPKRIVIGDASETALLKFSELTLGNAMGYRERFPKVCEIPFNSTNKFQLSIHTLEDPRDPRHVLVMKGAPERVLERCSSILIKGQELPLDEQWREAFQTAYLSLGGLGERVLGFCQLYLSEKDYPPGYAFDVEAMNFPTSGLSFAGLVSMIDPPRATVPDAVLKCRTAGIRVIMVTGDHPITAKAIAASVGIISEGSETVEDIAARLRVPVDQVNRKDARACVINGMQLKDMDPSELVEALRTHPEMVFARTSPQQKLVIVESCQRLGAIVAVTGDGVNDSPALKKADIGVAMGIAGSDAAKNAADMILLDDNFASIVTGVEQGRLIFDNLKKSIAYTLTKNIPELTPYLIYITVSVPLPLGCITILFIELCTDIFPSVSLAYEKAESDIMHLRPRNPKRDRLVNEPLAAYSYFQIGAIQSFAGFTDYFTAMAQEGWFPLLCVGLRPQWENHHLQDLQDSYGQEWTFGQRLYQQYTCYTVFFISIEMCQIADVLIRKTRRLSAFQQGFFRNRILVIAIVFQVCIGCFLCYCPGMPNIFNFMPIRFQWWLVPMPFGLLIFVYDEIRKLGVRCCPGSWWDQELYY
T1 sequence (P18434 whole entry partner): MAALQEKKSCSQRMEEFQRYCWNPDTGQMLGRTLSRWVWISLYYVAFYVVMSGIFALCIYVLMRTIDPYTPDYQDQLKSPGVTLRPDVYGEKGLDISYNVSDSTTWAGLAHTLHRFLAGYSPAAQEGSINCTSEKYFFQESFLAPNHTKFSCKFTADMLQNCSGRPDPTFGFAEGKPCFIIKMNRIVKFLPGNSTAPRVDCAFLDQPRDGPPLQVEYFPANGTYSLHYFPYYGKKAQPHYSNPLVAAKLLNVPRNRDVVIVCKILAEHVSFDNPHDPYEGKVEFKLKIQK

| IC50 [nM] | SMILES |
| --- | --- |
| 2800 | CCOCCOc1ccnc(C[S+]([O-])c2nc3ccccc3[nH]2)c1C (centres unmarked) [No. 6] |
| 5600 | COCCOc1ccnc(C[S+]([O-])c2nc3cc(OC)ccc3[nH]2)c1C (centres unmarked) [No. 12] |
| 1800 | CCCCOCCOc1ccnc(C[S+]([O-])c2nc3cc(Cl)ccc3[nH]2)c1C (centres unmarked) [No. 2] |
| 1100 | CCCCOCCOc1ccnc(C[S+]([O-])c2nc3cc(C(F)(F)F)ccc3[nH]2)c1C (centres unmarked) [No. 3] |
| 1800 | CCCCOCCOc1ccnc(C[S+]([O-])c2nc3ccccc3[nH]2)c1C (centres unmarked) |
| 3000 | CCCCOCCOc1ccnc(C[S+]([O-])c2nc3cc(OC)ccc3[nH]2)c1C (centres unmarked) [No. 5] |
| 1700 | COCCOc1ccnc(C[S+]([O-])c2nc3cc(C(F)(F)F)ccc3[nH]2)c1C (centres unmarked) [No. 11] |
| 2200 | CCCCOCCOc1ccnc(C[S+]([O-])c2nc3cc(C)c(C)cc3[nH]2)c1C (centres unmarked) [No. 4] |
| 3400 | CCOCCOc1ccnc(C[S+]([O-])c2nc3cc(OC)ccc3[nH]2)c1C (centres unmarked) [No. 9] |
| 3300 | COCCOc1ccnc(C[S+]([O-])c2nc3ccccc3[nH]2)c1C (centres unmarked) [No. 10] |

system: not given; experiment: not given; settings: reported, prior art; cited from earlier work

| SMILES | side effects |
| --- | --- |
| CN/C(=N/CCSCc1nc[nH]c1C)NC#N [cimetidine] | antiandrogenic action or a metabolic enzymatic activity inhibitory action upon liver |
